In PubChem BioAssay AID256 (DTP/NCI, 2004) one finds T/C data, which are given here for 16 compounds.

The test system of the assay is CD2F1 mice, L1210 leukemia ip, survival T/C. As to the kind of experiment: NCI In Vivo Anticancer Drug Screen. Data for tumor model L1210 Leukemia (intraperitoneal) in CD2F1 (CDF1) mice. The conditions noted are these: higher = longer survival. The gist of the method:
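Each value reflects a quotient of treated over vehicle control outcomes in mice with a transplanted tumor.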

Setting [1] is: endpoint: mean survival time, dose: 12.5 mg/kg/injection, schedule: Q04DX002 (ip), vehicle: saline with Tween-80.
Setting [2] is: endpoint: mean survival time, dose: 25.0 mg/kg/injection, schedule: Q04DX002 (ip), vehicle: saline with Tween-80.
Setting [3] is: endpoint: mean survival time, dose: 50.0 mg/kg/injection, schedule: Q04DX002 (ip), vehicle: saline with Tween-80.
[4] abbreviates: endpoint: mean survival time, dose: 100.0 mg/kg/injection, schedule: Q01DX009 (ip), vehicle: saline with Tween-80.
[5] abbreviates: endpoint: mean survival time, dose: 200.0 mg/kg/injection, schedule: Q01DX009 (ip), vehicle: saline with Tween-80.
Where [6] appears, read: endpoint: mean survival time, dose: 400.0 mg/kg/injection, schedule: Q01DX009 (ip), vehicle: saline with Tween-80.
Setting [7] is: endpoint: mean survival time, dose: 12.5 mg/kg/injection, schedule: Q01DX005 (ip), vehicle: water.
[8] abbreviates: endpoint: mean survival time, dose: 25.0 mg/kg/injection, schedule: Q01DX005 (ip), vehicle: water.
The mark [9] stands for this setting: endpoint: mean survival time, dose: 50.0 mg/kg/injection, schedule: Q01DX005 (ip), vehicle: water.
Where [10] appears, read: endpoint: mean survival time, dose: 100.0 mg/kg/injection, schedule: Q01DX005 (ip), vehicle: water.
Where [11] appears, read: endpoint: mean survival time, dose: 200.0 mg/kg/injection, schedule: Q01DX005 (ip), vehicle: water.
Setting [12] is: endpoint: mean survival time, dose: 100.0 mg/kg/injection, schedule: Q04DX002 (ip), vehicle: saline with Tween-80.

Molecules are shown by their SMILES. Several values for one entry are separate records, joined by “and”; a condition that tells them apart may be missing. Equal values may be shown once. Inconclusive results and toxic doses are left out.

For `COC12C(COC(N)=O)C3=C(C(=O)C(C)=C(N4CCN(C)CC4)C3=O)N1CC1NC12` (stereo unspecified), the T/C was 155 % of control (endpoint: median survival time, dose: 1.5 mg/kg/injection, schedule: Q01DX001 (ip), vehicle: water); 124 % of control (endpoint: median survival time, dose: 3.0 mg/kg/injection, schedule: Q01DX001 (ip), vehicle: water); 87 % of control (endpoint: median survival time, dose: 6.0 mg/kg/injection, schedule: Q01DX001 (ip), vehicle: water); 102 % of control and 106 % of control (endpoint: median survival time, dose: 375.0 micrograms/kg/injection, schedule: Q01DX001 (ip), vehicle: water); 90 % of control and 102 % of control (endpoint: median survival time, dose: 750.0 micrograms/kg/injection, schedule: Q01DX001 (ip), vehicle: water); 101 % of control and 106 % of control (endpoint: median survival time, dose: 1500.0 micrograms/kg/injection, schedule: Q01DX001 (ip), vehicle: water). The T/C (endpoint: median survival time, dose: 3000.0 micrograms/kg/injection, schedule: Q01DX001 (ip), vehicle: water) was 94 % of control and 106 % of control; the T/C (endpoint: median survival time, dose: 6000.0 micrograms/kg/injection, schedule: Q01DX001 (ip), vehicle: water) is 102 % of control and 105 % of control.

In the case of `CC(C)(C)c1cc([N+](C)(C)C)cc(C(C)(C)C)n1`, the T/C under setting [1] is 96 % of control, the T/C under setting [2] is 92 % of control and the T/C under setting [3] was 100 % of control.

For `N#CC(OC(=O)c1ccccc1)c1cccc([N+](=O)[O-])c1` (stereo unspecified), the T/C under setting [4] was 98 % of control; the T/C (endpoint: mean survival time, dose: 100.0 mg/kg/injection, schedule: Q04DX003 (ip), vehicle: saline with Tween-80) was 101 % of control; the T/C under setting [5] was 96 % of control; the T/C (endpoint: mean survival time, dose: 200.0 mg/kg/injection, schedule: Q04DX003 (ip), vehicle: saline with Tween-80) is 96 % of control; the T/C (endpoint: mean survival time, dose: 400.0 mg/kg/injection, schedule: Q04DX003 (ip), vehicle: saline with Tween-80) was 100 % of control.

As to `CC1(C)C([N+](C)(C)C)CS1(=O)=O` (stereo unspecified), the T/C (endpoint: mean survival time, dose: 100.0 mg/kg/injection, schedule: Q01DX001 (ip), vehicle: saline) was 105 % of control; the T/C (endpoint: mean survival time, dose: 100.0 mg/kg/injection, schedule: Q04DX003 (ip), vehicle: saline) is 96 % of control; the T/C (endpoint: mean survival time, dose: 200.0 mg/kg/injection, schedule: Q01DX001 (ip), vehicle: saline) is 103 % of control; the T/C (endpoint: mean survival time, dose: 200.0 mg/kg/injection, schedule: Q04DX003 (ip), vehicle: saline) is 101 % of control; the T/C (endpoint: mean survival time, dose: 400.0 mg/kg/injection, schedule: Q01DX001 (ip), vehicle: saline) is 103 % of control; the T/C (endpoint: mean survival time, dose: 400.0 mg/kg/injection, schedule: Q04DX003 (ip), vehicle: saline) was 96 % of control.

For the compound `CC(C)=[C-]N(C)C.[C-]#[O+].[C-]#[O+].[C-]#[O+].[C-]#[O+].[C-]#[O+].[Mn]`, the T/C is, setting by setting: under setting [1], 110 % of control; under setting [2], 103 % of control.

On to `c1ccc2c3c(ccc2c1)OCN(C12CC4CC(CC(C4)C1)C2)C3`, for which the T/C by setting is: under setting [4], 96 % of control; under setting [5], 102 % of control; under setting [6], 90 % of control.

As for `Nc1nccc2c1nnn2C1OC(CO)C(O)C1O` (stereo unspecified), the T/C under setting [7] was 102 % of control; the T/C under setting [8] is 104 % of control; the T/C under setting [9] is 96 % of control; the T/C under setting [10] is 102 % of control; the T/C under setting [11] was 106 % of control.

Take `C[N+](C)(C)Cc1ccc([N+](=O)[O-])cc1`: the T/C by setting is: (endpoint: mean survival time, dose: 5.0 mg/kg/injection, schedule: Q01DX001 (ip), vehicle: saline) 98 % of control; (endpoint: mean survival time, dose: 10.0 mg/kg/injection, schedule: Q01DX001 (ip), vehicle: saline) 106 % of control; (endpoint: mean survival time, dose: 20.0 mg/kg/injection, schedule: Q01DX001 (ip), vehicle: saline) 101 % of control; (endpoint: mean survival time, dose: 40.0 mg/kg/injection, schedule: Q01DX001 (ip), vehicle: saline) 98 % of control; (endpoint: mean survival time, dose: 80.0 mg/kg/injection, schedule: Q01DX001 (ip), vehicle: saline) 98 % of control.

Turning to `O=C(N/N=C\c1ccc(F)cc1)N/N=C/c1ccc(F)cc1`, the T/C reads like this: (endpoint: mean survival time, dose: 12.5 mg/kg/injection, schedule: Q01DX009 (ip), vehicle: saline with Tween-80) 93 % of control; (endpoint: mean survival time, dose: 25.0 mg/kg/injection, schedule: Q01DX009 (ip), vehicle: saline with Tween-80) 91 % of control; (endpoint: mean survival time, dose: 50.0 mg/kg/injection, schedule: Q01DX009 (ip), vehicle: saline with Tween-80) 91 % of control; under setting [5], 90 % of control; under setting [6], 90 % of control.

On to `N/C(=N\O)c1cn(C2OC(CO)C(O)C2O)c2ncnc(N)c12` (stereo unspecified), for which the T/C (endpoint: mean survival time, dose: 8.0 mg/kg/injection, schedule: Q01DX007 (ip), vehicle: saline) is 111 % of control.

For the compound `CCOC(=O)C(CCP(=O)(OCC)OCC)NC(=O)c1ccc(N(C)Cc2cnc3nc(N)nc(N)c3n2)cc1` (stereo unspecified), the T/C runs as follows: (endpoint: median survival time, dose: 0.38 mg/kg/injection, schedule: Q01DX009 (ip), vehicle: saline) 101 % of control; (endpoint: median survival time, dose: 0.75 mg/kg/injection, schedule: Q01DX009 (ip), vehicle: saline) 102 % of control; (endpoint: median survival time, dose: 1.5 mg/kg/injection, schedule: Q01DX009 (ip), vehicle: saline) 102 % of control; (endpoint: median survival time, dose: 3.0 mg/kg/injection, schedule: Q01DX009 (ip), vehicle: saline) 102 % of control; (endpoint: median survival time, dose: 6.0 mg/kg/injection, schedule: Q01DX009 (ip), vehicle: saline) 101 % of control; (endpoint: median survival time, dose: 12.0 mg/kg/injection, schedule: Q01DX009 (ip), vehicle: saline) 102 % of control.

With `C=C(C)CNC1=C(C)C(=O)C2=C(C1=O)[C@H](COC(N)=O)[C@]1(OC)[C@@H]3N[C@@H]3CN21`, the T/C was 119 % of control (endpoint: mean survival time, dose: 1.5 mg/kg/injection, schedule: Q01DX001 (ip), vehicle: distilled water + Tween-80); 117 % of control (endpoint: mean survival time, dose: 3.0 mg/kg/injection, schedule: Q01DX001 (ip), vehicle: distilled water + Tween-80); 101 % of control (endpoint: mean survival time, dose: 12.0 mg/kg/injection, schedule: Q01DX001 (ip), vehicle: distilled water + Tween-80).

For the compound `CC(C)OC(=O)Nc1cc(F)cc(C(F)(F)F)c1F`, the T/C is, setting by setting: under setting [4], 94 % of control; under setting [5], 97 % of control; under setting [6], 97 % of control.

On to `CCOc1ccc(OCC)c(NC(=O)Nc2ccccc2Cl)c1`, for which the T/C under setting [2] is 94 % of control, the T/C under setting [3] was 94 % of control and the T/C under setting [12] was 90 % of control.

For `CN(C)C(=O)Sc1c(S(=O)(=O)F)ccc(Cl)c1Cl`, the T/C by setting is: under setting [12], 96 % of control; (endpoint: mean survival time, dose: 200.0 mg/kg/injection, schedule: Q04DX002 (ip), vehicle: saline with Tween-80) 96 % of control; (endpoint: mean survival time, dose: 400.0 mg/kg/injection, schedule: Q04DX002 (ip), vehicle: saline with Tween-80) 100 % of control.

As for `CSCc1cn(C2CC(O)C(CO)O2)c(=O)[nH]c1=O` (stereo unspecified), the T/C was 95 % of control under setting [7]; 98 % of control under setting [8]; 98 % of control under setting [9]; 95 % of control under setting [10]; 95 % of control under setting [11].
